Measurements published in patent publication EP4567031A1, “HPK1 INHIBITOR, PREPARATION METHOD THEREFOR, AND USE THEREOF” (Beijing Earthwise Technology Co., Ltd., priority 2022, dated 2024).
Read-outs that look alike come from different tables or passages of the source.

Test system: human Pan T cells
Assay: Human Pan T cell IL-2 ELISA
Format: cell-based
Settings: read-out: IL-2 release, EC50
Procedure: A compound was dissolved in DMSO to 10 mM, and then diluted three-fold with DMSO to 9 dosages in a 96-well plate. Then, 10 µL of the diluted compound sample was transferred to a 96-well plate with 90 µL of cell culture medium, and the plate was shaken for 5 minutes. Then, 5 µL of the diluted compound sample was transferred to a 96-well plate with 120 µL of cell culture medium, and the plate was shaken for 5 minutes. According to the experimental design diagram, 50 µL of the diluted compound sample was transferred to a cell plate. Final concentrations of the compound in this assay were 10000.00, 5000, 2500, 1250, 625, 312.5, 156.25, 78.125 and 39.063 nM.
The assay was conducted in a 96-well plate. On the first day of the assay, Anti-CD3 was added to the 96-well plate and incubated in a 4 °C refrigerator overnight. On the second day of the assay, human Pan T cells were recovered, centrifuged and counted. The cell density was adjusted to 1*10^6 cells/ml. Then, 100 µL of cells were added to the 96-well plate washed with PBS and added with Anti-CD3; according to the experimental design diagram, 50 µL of diluted Anti-CD28 and 50 µL of the diluted compound were added to each well, centrifuged, and the cell plate was placed and incubated in an incubator for 48 hours; after 48 hours, the plate was centrifuged and the supernatant was collected for IL-2 ELISA.
The signal value of light absorption was converted into a multiple. Multiple = sample value/the average value of control wells. The average value of control wells refers to the value measured in wells with DMSO added. EC50 values were calculated by XLFit (version 5.3.1.3) in Excel. Equation: Y=Bottom + (Top-Bottom) / (1 + (EC50/X) ^ HillSlope). Table 6. Results of cellular activity of the compounds

[1] = Homo sapiens, T-cell, 48 h, Anti-CD3 and Anti-CD28, supernatant IL-2 ELISA
[2] = Anti-CD3 and Anti-CD28, 48 hours, supernatant IL-2 ELISA

| EC50 [1] [nM] | EC50 [2] [nM] | Compound |
| --- | --- | --- |
| 66.7 |  | COC1CCCn2c(-c3cc4c(c5c3CNC5=O)Nc3ccc(N5CCOCC5)cc3C4(C)C)nnc21 (racemic) [Example 120] |
| 33.4 |  | COC1CCCn2c(-c3cc4c(c5c3CNC5=O)Nc3ccc(N5CCOCC5)nc3C4(C)C)cnc21 (single isomer, unassigned) [Example 25] |
| 6.33 |  | CC1(C)c2cc(N3CCOC(C(C)(C)O)C3)ccc2Nc2c1cc(-c1cnc3cc(F)ccn13)c1c2C(=O)NC1 (single isomer, unassigned) [Example 93] |
| 7.82 |  | Cc1ccc2c(-c3cc4c(c5c3CNC5=O)Nc3ccc(N5CCOC(C(C)(C)O)C5)cc3C4(C)C)cnn2c1 (single isomer, unassigned) [Example 95] |
| 18.3 |  | Cc1ccn2c(-c3cc4c(c5c3CNC5=O)Nc3ccc(N5CCOC(C(C)(C)O)C5)cc3C4(C)C)cnc2c1 (single isomer, unassigned) [Example 106] |
| 7.23 |  | CC1(C)c2cc(N3CCOC(C(C)(C)O)C3)ccc2Nc2c1cc(-c1cnc3cc(Cl)ccn13)c1c2C(=O)NC1 (single isomer, unassigned) [Example 125] |
| 12.4 |  | COc1c(F)ccn2c(-c3cc4c(c5c3CNC5=O)Nc3ccc(N5CCOC(C(C)(C)O)C5)cc3C4(C)C)cnc12 (single isomer, unassigned) [Example 127] |
| 18.2 |  | CC1(C)c2cc(N3CCOC(C(C)(C)O)C3)ccc2Nc2c1cc(-c1cnc3cc(C(F)F)ccn13)c1c2C(=O)NC1 (single isomer, unassigned) [Example 129] |
| 10.1 |  | COC1CCCn2c(-c3cc4c(c5c3CNC5=O)Nc3ccc(N5CCOC(C(C)(C)O)C5)cc3C4(C)C)cnc21 (single isomer, unassigned) [Example 132] |
| 22.1 |  | CC1(C)c2cc(N3CCOC(C(C)(C)O)C3)ccc2Nc2c1cc(-c1cnc3cc(C#N)ccn13)c1c2C(=O)NC1 (single isomer, unassigned) [Example 133] |
| 19.5 |  | CCc1ncc(-c2cc3c(c4c2CNC4=O)Nc2ccc(N4CCOC(C(C)(C)O)C4)cc2C3(C)C)n1C (single isomer, unassigned) [Example 134] |
| 24.5 |  | CCOC1CCCn2c(-c3cc4c(c5c3CNC5=O)Nc3ccc(N5CCOCC5)cc3C4(C)C)cnc21 (single isomer, unassigned) [Example 136] |
| 35.8 |  | COC1CCCn2c(-c3cc4c(c5c3CNC5=O)Nc3ccc(N5CC(C)OC(C)C5)cc3C4(C)C)cnc21 (single isomer, unassigned) [Example 140] |
| 87.3 |  | Cn1c(-c2cc3c(c4c2CNC4=O)Nc2ccc(N4CCOC(C(C)(C)O)C4)cc2C3(C)C)cnc1C1CCOCC1 (single isomer, unassigned) [Example 141] |
| 25.1 |  | COC1CCn2c(-c3cc4c(c5c3CNC5=O)Nc3ccc(N5CCOC(C(C)(C)O)C5)cc3C4(C)C)cnc2C1 (single isomer, unassigned) [Example 142] |
| 592 |  | Cn1c(-c2cc3c(c4c2CNC4=O)Nc2ccc(N4CCOC(C(C)(C)O)C4)cc2C3(C)C)cnc1C1CCNC1 (single isomer, unassigned) [Example 143] |
| 134 |  | COC1CCCn2c(-c3cc4c(c5c3CNC5=O)Nc3cc(C5CCOCC5)ccc3C4(C)C)cnc21 (single isomer, unassigned) [Example 144] |
| 6.5 |  | CC1(C)c2cc(N3CCOC(C(C)(C)O)C3)ccc2Nc2c1cc(-c1cnn3cc(C#N)ccc13)c1c2C(=O)NC1 (single isomer, unassigned) [Example 145] |
| 5.7 |  | Cn1ncc2c(-c3cc4c(c5c3CNC5=O)Nc3ccc(N5CCOC(C(C)(C)O)C5)cc3C4(C)C)cncc21 (single isomer, unassigned) [Example 146] |
| 42.7 |  | Cn1c(-c2cc3c(c4c2CNC4=O)Nc2ccc(N4CCOC(C(C)(C)O)C4)cc2C3(C)C)cnc1C1CCOC1 (single isomer, unassigned) [Example 147] |
| 21.8 |  | Cc1c(-c2cc3c(c4c2CNC4=O)Nc2ccc(N4CCOC(C(C)(C)O)C4)cc2C3(C)C)cnn1C1CC1 (single isomer, unassigned) [Example 148] |
| 30.6 |  | COC1CCCn2c(-c3cc4c(c5c3CNC5=O)Nc3cc(C)c(N5CCOCC5)cc3C4(C)C)cnc21 (single isomer, unassigned) [Example 150] |

| EC50 [1] [nM] | EC50 [2] [nM] | Compound |
| --- | --- | --- |
| 68.8 |  | CCOc1ccc2c(-c3cc4c(c5c3CNC5=O)Nc3ccc(N5CCOC(C(C)(C)O)C5)cc3C4(C)C)cnn2c1 (single isomer, unassigned) [Example 151] |
| 34.6 |  | COC1CCCn2c(-c3cc4c(c5c3CNC5=O)Nc3ccc(N5C6CCC5COC6)cc3C4(C)C)cnc21 (single isomer, unassigned) [Example 152] |
| 46.8 |  | Cn1c(-c2cc3c(c4c2CNC4=O)Nc2ccc(N4CCOC(C(C)(C)O)C4)cc2C3(C)C)cnc1OC1CCOC1 (single isomer, unassigned) [Example 153] |
| 7.35 |  | CC1(C)c2cc(N3CCOC(C(C)(C)O)C3)ccc2Nc2c1cc(-c1cnn3cc(Cl)ccc13)c1c2C(=O)NC1 (single isomer, unassigned) [Example 154] |
| 6.47 |  | COc1ccc2c(-c3cc4c(c5c3CNC5=O)Nc3ccc(N5CCOC(C(C)(C)O)C5)cc3C4(C)C)cnn2c1 (single isomer, unassigned) [Example 157] |
| 37.6 |  | COC1CCCn2c(-c3cc4c(c5c3CNC5=O)Nc3ccc(N5CCCOCC5)cc3C4(C)C)cnc21 (single isomer, unassigned) [Example 158] |
| 23.6 |  | CCC1(C)c2cc(N3CCOCC3)ccc2Nc2c1cc(-c1cnc3n1CCCC3OC)c1c2C(=O)NC1 (single isomer, unassigned) [Example 159] |
| 6.33 |  | Cc1ccn2c(-c3cc4c(c5c3CNC5=O)Nc3ccc(N5CCOC(C(C)(C)O)C5)cc3C4(C)C)cnc2n1 (single isomer, unassigned) [Example 162] |
| 25 |  | COC1CCCn2c(-c3cc4c(c5c3CNC5=O)Nc3ccc(C5CCOCC5)cc3C4(C)C)cnc21 (single isomer, unassigned) [Example 163] |
| 14 |  | COC1CCCn2c(-c3cc4c(c5c3CNC5=O)Nc3cc(C#N)c(N5CCOCC5)cc3C4(C)C)cnc21 (single isomer, unassigned) [Example 175] |
| 25 |  | COC1CCCc2c(-c3cc4c(c5c3CNC5=O)Nc3ccc(N5CCOCC5)cc3C4(C)C)cnn21 (single isomer, unassigned) [Example 177] |
| 19 |  | COC1CCCn2c(-c3cc4c(c5c3CNC5=O)Nc3c(F)cc(N5CCOCC5)cc3C4(C)C)cnc21 (single isomer, unassigned) [Example 178] |
| 20 |  | COc1cc2c(cc1N1CCOCC1)C(C)(C)c1cc(-c3cnc4n3CCCC4OC)c3c(c1N2)C(=O)NC3 (single isomer, unassigned) [Example 182] |
| 15 |  | CC1(C)c2cc(N3CCOCC3)ccc2Nc2c1cc(-c1cnc3n1CCCC3OC1CC1)c1c2C(=O)NC1 (single isomer, unassigned) [Example 187] |
| 53 |  | Cn1c(-c2cc3c(c4c2CNC4=O)Nc2ccc(N4CCOCC4)cc2C3(C)C)cnc1C1CCCO1 (single isomer, unassigned) [Example 190] |
|  | 28 | Cn1c(-c2cc3c(c4c2CNC4=O)Nc2ccc(N4CCOCC4)cc2C3(C)C)cnc1C1CCCO1 (single isomer, unassigned) [Example 191] |
|  | 8.7 | COC1CCc2c(-c3cc4c(c5c3CNC5=O)Nc3ccc(N5CCOCC5)cc3C4(C)C)cncc21 (single isomer, unassigned) [Example 202] |
|  | 95 | COC1CCc2c(-c3cc4c(c5c3CNC5=O)Nc3ccc(N5CCOCC5)cc3C4(C)C)cncc21 (single isomer, unassigned) [Example 203] |
| 11 |  | CCC1(C)c2cc(N3CCOCC3)ccc2Nc2c1cc(-c1cnc3c(OC)nccn13)c1c2C(=O)NC1 (single isomer, unassigned) [Example 212] |
|  | 19 | CCC1(C)c2cc(N3CCOCC3)ccc2Nc2c1cc(-c1cnc3c(OC)nccn13)c1c2C(=O)NC1 (single isomer, unassigned) [Example 213] |
|  | 19 | CC1CCCn2c(-c3cc4c(c5c3CNC5=O)Nc3ccc(N5CCOCC5)cc3C4(C)C)cnc21 (single isomer, unassigned) [Example 218] |
|  | 8.1 | CC1CCCn2c(-c3cc4c(c5c3CNC5=O)Nc3ccc(N5CCOCC5)cc3C4(C)C)cnc21 (single isomer, unassigned) [Example 219] |

| Compound | EC50 [1] [nM] | EC50 [2] [nM] |
| --- | --- | --- |
| COC1CCCn2c(-c3cc4c(c5c3CNC5=O)Nc3ccc(N5CCOCC5C)cc3C4(C)C)cnc21 (single isomer, unassigned) [Example 155] | 26.6 |  |
| COC1CCCn2c(-c3cc4c(c5c3CNC5=O)Nc3ccc(N5CCOCC5C)cc3C4(C)C)cnc21 (single isomer, unassigned) [Example 180] |  | 27 |
| COC1CCCn2c(-c3cc4c(c5c3CNC5=O)Nc3ccc(N5CCOCC5C)cc3C4(C)C)cnc21 (single isomer, unassigned) [Example 181] |  | 26 |
